In patent publication US12256737B2, “Preparation method and application of water-soluble chlorhexidine hyaluronate antibacterial agents” (Jiangnan University, priority 2022, dated 2025):
In brackets after ≈: the same amount, converted by molar mass.

Experiments:
Water solubility test = format: physicochemical; settings: deionized water, 25° C., 500 mg sample in 1 ml
Experimental: A method for testing the water solubility of the chlorhexidine antimicrobial disinfectant included the following steps: • 1 ml of deionized water was added to 500 mg of a sample to be tested and the sample was fully dissolved at 25° C. If an insoluble component existed, an insoluble portion suspended in the solution. After the solution was centrifuged in a centrifuge (rate of 5,000 r/min) for 5 min, the residual solid was washed 3 times in acetone and then dried in a vacuum oven for 24 h, and after the solid was completely dried, the solid was weighed and recorded as W1.
The solubility was calculated as follows: • solubility (mg/ml)=(500−W1)/1 • where W1 is the mass (mg) of the undissolved solid.

S. aureus = assay: In-vitro antimicrobial experiment (MIC, 96-well broth dilution); format: cell-based, Staphylococcus aureus; settings: 37° C., 24 h; for MIC: LB liquid medium
Experimental: (§1) An in-vitro antimicrobial experiment of the chlorhexidine antimicrobial disinfectant was performed according to the following steps: • in a sterile super clean bench, the chlorhexidine antimicrobial disinfectants were separately prepared into 10 mg/ml solutions. A 96-well plate was taken and 100 μL of an LB liquid medium was injected into each well plate. Two rows in the same 96-well plate were respectively used as a sterile control and a drug-free control, 100 μL of the prepared chlorhexidine antimicrobial disinfectant solution was injected into the first column of the rest rows, two rows of each chlorhexidine antimicrobial disinfectant solution were injected as two groups of a parallel test, 100 μL of the uniformly mixed solution was injected into the right side well, the step was repeated until 12 columns of the wells were filled, and 100 μL of the solution was extracted from the last column and discarded. The previously cultured E. coli and S. aureus were diluted to a desired concentration of 1×10^6 CFU/mL using the LB liquid medium. 100 μL of the above-mentioned bacterial solution was injected into each well of the rows injected with the chlorhexidine antimicrobial disinfectant and the drug-free control row in the same plate. Then the plate was placed into a biochemical incubator to be cultured at 37° C. for 24 h. The plate was taken out and the change of the turbidity degree of each well was observed. […] It was observed by naked eyes that the lowest concentration of the antimicrobial agent in the clear wells where no bacteria grew was the minimum inhibitory concentration (MIC) of the tested bacteria.

E. coli = assay: as above; format: cell-based, Escherichia coli; settings: 37° C., 24 h; for MIC: LB liquid medium
Experimental: as §1

Photostability test = format: physicochemical; settings: fluorescent lamp
Experimental: A photostability test of the hyaluronic acid chlorhexidine, for example the hyaluronic acid chlorhexidine (HA8-CHD) prepared in example 2, was performed according to the following steps: • a sample to be detected was exposed in an illumination box provided with a fluorescent lamp for 5 days and taken on 1st day, 3rd day and 5th day. Items (appearance, mass, 1H NMR spectrum detection, and antimicrobial performance) were mainly detected according to stability, especially the appearance change of the sample was particularly required to be noticed.

L-929 mouse fibroblasts = format: cell-based
Experimental: A cytotoxicity test of the hyaluronic acid chlorhexidine, for example the hyaluronic acid chlorhexidine (HAL-CHD) of example 4, specifically included the following steps: • L-929 mouse fibroblasts were digested and the cell suspension concentration was adjusted to 0.5-1 million/mL. 100 μL of the cell suspension was added into each well of a 96-well plate with […]. The wells at the edge of the 96-well plate were filled with a culture solution. The cells were cultured overnight in a 5% CO2 incubator at 37° C. Three samples of HAL-CHD-1 (1 MIC), HAL-CHD-3 (3 MIC) and HAL-CHD-5 (5 MIC) at the concentration gradients of 10 μL or less were respectively added, and 5 replicates were prepared for each concentration gradient. At the same time, a zero-setting well (containing a culture medium and CCK-8) was set. The 96-well plate was incubated in a 5% CO2 incubator at 37° C. After 24 h, 48 h and 72 h, 10 μL of a CCK-8 reagent was added. The reaction was performed in the incubator for 3 h and the absorbance was measured using a microplate reader at the wavelength of 450 nm.

## CC(=O)O.CC(=O)O.NC(=N\CCCCCC/N=C(N)/N=C(\N)Nc1ccc(Cl)cc1)/N=C(\N)Nc1ccc(Cl)cc1 [AA-CHD, chlorhexidine acetate]
Water solubility test
  Water solubility: 19.05 mg/mL

## [H]/N=C(\N/C(=N/[H])NCCCCCCNC(=N)NC(=N)Nc1ccc(Cl)cc1)Nc1ccc(Cl)cc1 [CHD, 1,6-bis(p-chlorophenyldiguanido)hexane]
Water solubility test; thermodynamic from solid
  solubility: 0.85 mg/mL (≈ 1680 µM)

## N=C(NCCCCCCNC(=N)NC(=N)Nc1ccc(Cl)cc1)NC(=N)Nc1ccc(Cl)cc1.O=C(O)[C@H](O)[C@@H](O)[C@H](O)[C@H](O)CO.O=C(O)[C@H](O)[C@@H](O)[C@H](O)[C@H](O)CO [GA-CHD, chlorhexidine gluconate, reference compound]
S. aureus
  MIC: 700 µM
E. coli
  MIC: 900 µM
Water solubility test
  Water solubility: ≥500 mg/mL

## hyaluronic acid chlorhexidine [HA4-CHD]
S. aureus
  MIC, corresponding mass concentration: 1,250 μg/mL
  MIC: 800 µM
E. coli
  MIC, corresponding mass concentration: 1,667 μg/mL
  MIC: 1100 µM

## hyaluronic acid chlorhexidine [HA8-CHD]
Water solubility test
  Water solubility: ≥500 mg/mL
Photostability test; after illumination
  antimicrobial performance after illumination: not obviously reduced
Photostability test; within 5 days of illumination
  appearance versus freshly prepared sample: no significant difference in appearance
  mass versus freshly prepared sample: no significant change in the mass
  structure characterization (1H NMR) versus freshly prepared sample: no significant difference in the structure characterization

## hyaluronic acid chlorhexidine [HAL-CHD]
L-929 mouse fibroblasts
  cell viability versus control group: higher that of the control group
